Literature values, collected in patent publication US20010044101A1, “IN VITRO METHOD FOR PREDICTING THE EV[…] OF A PROTEIN TO A DRUG TARGETED THEREAGAINST” (priority 1994, published 2001).
Where two headings read alike, the source gives them in different places.

Tested on: HIV-1

## (-)-2′-deoxy-5-fluoro-3′-thiacytidine [FTC]
Fourth passage of the wild-type HIV-1 progeny, MT-4 cells, increasing FTC concentration, read-out: IC50 (50% inhibitory concentration)
  IC50: > 50 µM
Passage 6 virus, tested at higher compound concentrations, read-out: IC50
  IC50: > 250 µM
Second passage of the AZT-resistant HIV-1 progeny, MT-4 cells, increasing FTC concentration, read-out: IC50 (50% inhibitory concentration)
  IC50: > 50 µM
